Measured values: paper PMC4430447 (International journal of pharmaceutics, 2014)
“Also recorded” adds a separate entry of the source. Like-named read-outs stand apart in the source and are kept apart here.

Key:
NTCP-HEK293 cells = test: Passive uptake in the absence of sodium
human NTCP [1] = biological target: T1, human NTCP (Homo sapiens, UniProt Q14973); test: Uptake study on NTCP-HEK293 cells; type: cell-based; settings: for Normalized Jmax: Jmax of compound normalized against Jmax of taurocholate; for Kt: Michaelis-Menten constant of uptake, 5 min, 0-200 μM in HBSS; for NTCP substrate (in words): uptake in presence versus absence of sodium
T1 sequence (Q14973 1-349): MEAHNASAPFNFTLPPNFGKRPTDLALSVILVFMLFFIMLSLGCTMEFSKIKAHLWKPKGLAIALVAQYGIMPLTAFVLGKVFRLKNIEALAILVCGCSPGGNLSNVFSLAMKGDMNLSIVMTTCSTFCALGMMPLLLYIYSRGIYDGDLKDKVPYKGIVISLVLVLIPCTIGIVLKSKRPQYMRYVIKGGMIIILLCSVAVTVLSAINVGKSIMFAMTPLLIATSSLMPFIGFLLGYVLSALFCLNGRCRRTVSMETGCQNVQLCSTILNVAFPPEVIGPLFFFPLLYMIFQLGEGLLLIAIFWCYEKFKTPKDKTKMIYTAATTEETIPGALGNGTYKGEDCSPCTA

human NTCP [2] = biological target: T1, human NTCP; settings: ref Dong et al., 2013, cited from earlier work
human NTCP [3] = biological target: T1, human NTCP; test: Inhibition of irbesartan or losartan uptake by taurocholate in NTCP-HEK293 cells; type: cell-based; settings: substrates irbesartan or losartan
human NTCP [4] = biological target: T1, human NTCP; test: Inhibition of taurocholate uptake into NTCP-HEK293 cells; type: cell-based; settings: for Inhibition of NTCP taurocholate uptake (in words): NTCP-HEK293 cells, 0-200 μM

Row | SMILES | Pp (passive permeability) (NTCP-HEK293 cells) | Normalized Jmax (human NTCP [1]) | Kt (human NTCP [1]; NTCP-HEK293 cells) | NTCP substrate (in words) (human NTCP [1]; NTCP-HEK293 cells) | also measured
1 | C[C@H](CCC(=O)NCCS(=O)(=O)O)[C@H]1CC[C@H]2[C@@H]3[C@H](O)C[C@@H]4C[C@H](O)CC[C@]4(C)[C@H]3C[C@H](O)[C@]12C [TCA, taurocholate] | – | 0.708 ± 0.057 | 19.8 ± 2.5 µM | – | Kt (NTCP taurocholate Michaelis-Menten constant) (human NTCP [2]; used in Equation 1): 22.7(+3.4) μM; Inhibition of irbesartan and losartan uptake (in words) (human NTCP [3]): inhibited irbesartan and losartan uptake in a concentration dependent fashion
2 | O=C1[C@H](CC[C@H](O)c2ccc(F)cc2)[C@@H](c2ccc(O)cc2)N1c1ccc(F)cc1 [Ezetimibe] | – | – | – | not to be NTCP substrates | Previously identified as NTCP inhibitor (in words) (human NTCP [2]): previously identified as NTCP inhibitors
3 | C[C@H](CCC(=O)O)[C@H]1CC[C@H]2[C@@H]3C(=O)C[C@@H]4CC(=O)CC[C@]4(C)[C@H]3CC(=O)[C@]12C [DHCA, dehydrocholate] | – | – | – | – | Inhibition of NTCP taurocholate uptake (in words) (human NTCP [4]): not an inhibitor of NTCP
4 | CCCCC1=NC2(CCCC2)C(=O)N1Cc1ccc(-c2ccccc2-c2nnn[nH]2)cc1 [Irbesartan] | 6.27 ± 0.14 cm/s ×10^6 | 0.172 ± 0.022 | 32.7 ± 5.9 µM | substrates of human NTCP | Previously identified as NTCP inhibitor (in words) (human NTCP [2]): previously identified as NTCP inhibitors; Jmax (human NTCP [1]; maximal flux, NTCP-HEK293 cells): 0.430 ± 0.026 pmol/sec/cm^2; Jmax relative to taurocholate Jmax (human NTCP [1]; versus taurocholate Jmax): about 20%
5 | C[C@H](CCC(=O)NCC(=O)O)[C@H]1CC[C@H]2[C@@H]3CC[C@@H]4C[C@H](O)CC[C@]4(C)[C@H]3CC[C@]12C [GLCA, glycolithocholate] | 6.67 ± 0.95 cm/s ×10^6 | 0.384 ± 0.070 | 4.87 ± 3.49 µM | – | Ki (human NTCP [4]): ~5 µM; Ki (human NTCP [4]; listed as Lithocholate Glycine): 7.29 µM
6 | C[C@H](CCC(=O)NCC(=O)O)[C@H]1CC[C@H]2[C@@H]3[C@@H](O)C[C@@H]4C[C@H](O)CC[C@]4(C)[C@H]3CC[C@]12C [GUDCA, glycoursodeoxycholate] | – | 0.460 ± 0.143 | – | – | Ki (human NTCP [4]): 15 µM; Inhibition of NTCP taurocholate uptake (in words) (human NTCP [4]): reduced by GUDCA in a concentration-dependent manner
7 | C[C@H](CCC(=O)NCC(=O)O)[C@H]1CC[C@H]2[C@@H]3[C@H](O)C[C@@H]4C[C@H](O)CC[C@]4(C)[C@H]3CC[C@]12C [GCDCA, glycochenodeoxycholate] | 2.17 ± 0.32 cm/s ×10^6 | 0.726 ± 0.091 | 10.9 ± 1.8 µM | – | –
8 | CC(C)OC(=O)C(C)(C)Oc1ccc(C(=O)c2ccc(Cl)cc2)cc1 [Fenofibrate] | – | – | – | not to be NTCP substrates | Previously identified as NTCP inhibitor (in words) (human NTCP [2]): previously observed them to be inhibitors
9 | CC(C)c1nc(N(C)S(C)(=O)=O)nc(-c2ccc(F)cc2)c1/C=C/[C@@H](O)C[C@@H](O)CC(=O)O [Rosuvastatin] | 0.330 ± 0.006 cm/s ×10^6 | – | – | – | –
10 | C[C@H](CCC(=O)O)[C@H]1CC[C@H]2[C@@H]3[C@H](O)C[C@@H]4C[C@H](O)CC[C@]4(C)[C@H]3C[C@H](O)[C@]12C [CA, cholate] | 4.56 ± 0.06 cm/s ×10^6 | 0.523 ± 0.081 | 54.9 µM | substrates | –
11 | CCCCc1nc(Cl)c(CO)n1Cc1ccc(-c2ccccc2-c2nn[nH]n2)cc1 [Losartan] | 1.48 ± 0.12 cm/s ×10^6 | – | – | – | –

More lines, main results first:

Row | Pp (passive permeability) (NTCP-HEK293 cells) | Normalized Jmax (human NTCP [1]) | Kt (human NTCP [1]; NTCP-HEK293 cells) | SMILES | NTCP substrate (in words) (human NTCP [1]; NTCP-HEK293 cells) | also measured
12 | 3.37 ± 0.63 cm/s ×10^6 | 0.495 ± 0.053 | 6.50 ± 1.87 µM | C[C@H](CCC(=O)NCCS(=O)(=O)O)[C@H]1CC[C@H]2[C@@H]3CC[C@@H]4C[C@H](O)CC[C@]4(C)[C@H]3CC[C@]12C [TLCA, taurolithocholate] | – | –
13 | – | 0.409 ± 0.038 | 9.53 µM | C[C@H](CCC(=O)NCCS(=O)(=O)O)[C@H]1CC[C@H]2[C@@H]3[C@@H](O)C[C@@H]4C[C@H](O)CC[C@]4(C)[C@H]3CC[C@]12C [TUDCA, tauroursodeoxycholate] | – | –
14 | 7.70 ± 0.23 cm/s ×10^6 | 0.233 ± 0.036 | 11.7 ± 4.3 µM | C[C@H](CCC(=O)N[C@@H](CCC(=O)OCc1ccccc1)C(=O)O)[C@H]1CC[C@H]2[C@@H]3[C@H](O)C[C@@H]4C[C@H](O)CC[C@]4(C)[C@H]3CC[C@]12C [CDCA-L-Glu-γ-Benzyl Ester] | – | –
15 | 1.47 ± 0.09 cm/s ×10^6 | 0.330 ± 0.031 | 9.62 ± 1.47 µM | CC(C)[C@H](NC(=O)CC[C@@H](C)[C@H]1CC[C@H]2[C@@H]3[C@H](O)C[C@@H]4C[C@H](O)CC[C@]4(C)[C@H]3CC[C@]12C)C(=O)O [CDCA-L-Val-OH] | – | –
16 | 4.35 ± 0.70 cm/s ×10^6 | 0.621 ± 0.058 | 8.12 ± 1.20 µM | C[C@H](CCC(=O)NCCS(=O)(=O)O)[C@H]1CC[C@H]2[C@@H]3[C@H](O)C[C@@H]4C[C@H](O)CC[C@]4(C)[C@H]3CC[C@]12C [TCDCA, taurochenodeoxycholate] | – | –
17 | 33.9 ± 3.3 cm/s ×10^6 | – | – | C[C@H](CCC(=O)O)[C@H]1CC[C@H]2[C@@H]3CC[C@@H]4C[C@H](O)CC[C@]4(C)[C@H]3CC[C@]12C [LCA, lithocholate] | indistinguishable uptake in the presence or absence of sodium; also recorded: not an apparent substrate | –
18 | 26.3 ± 1.1 cm/s ×10^6 | 0.0511 ± 0.0093 | 1.55 µM | C[C@H](CCC(=O)O)[C@H]1CC[C@H]2[C@@H]3[C@@H](O)C[C@@H]4C[C@H](O)CC[C@]4(C)[C@H]3CC[C@]12C [UDCA, ursodeoxycholate] | substrates | Normalized Jmax, fold lower than that for taurocholate (human NTCP [1]; versus taurocholate): 14 fold
19 | – | 0.508 ± 0.041 | 15.8 ± 2.7 µM | C[C@H](CCC(=O)NCC(=O)O)[C@H]1CC[C@H]2[C@@H]3[C@H](O)C[C@@H]4C[C@H](O)CC[C@]4(C)[C@H]3C[C@H](O)[C@]12C [GCA, glycocholate] | – | –
20 | 27.6 ± 1.5 cm/s ×10^6 | – | – | C[C@H](CCC(=O)O)[C@H]1CC[C@H]2[C@@H]3[C@H](O)C[C@@H]4C[C@H](O)CC[C@]4(C)[C@H]3CC[C@]12C [CDCA, chenodeoxycholate] | indistinguishable uptake in the presence or absence of sodium; also recorded: no NTCP uptake | –
